In patent US5602176A, “Phenyl carbamate” (priority 1987, dated 1997):
Like-named read-outs stand apart in the source and are kept apart here.

Key:
AChE = AChE (Rattus norvegicus, UniProt P37136); format: in vivo; set-up: from tissue; host or cells: male OFA rats: cortex, hippocampus, striatum, pons/medulla, heart, blood; conditions: Transdermal 30 μmol/kg
Protocol: The AChE activity is measured according to the method described by Ellman (Arch. Biochem. Biophys. 82, 70, 1959). Rat brain tissue is homogenized in cold phosphate buffer pH 7.3 (0.25 mM) containing 0.1% of Triton X-100. After centrifugation aliquots of the clear supernatant is used as enzyme source. The enzyme is preincubated with different concentrations of the inhibitor. After different times, substrate (acetylthiocholinjodide 0.5 mM) is added and the remaining activity determined.
The compounds are dissolved in or diluted with n-heptane to a concentration of 1 or 3 mg/20 μl. […] The application place is immediately covered using a thin plastic film and a plaster. The animal has no access to the plaster. Various times after the administration the animals are killed by decapitation and the remaining AChE activity is measured.

[1] = tested on: deoxyglucose (DOG) utilisation in the brain; experiment: Muscarinic and nicotinic effects on brain glucose utilisation (deoxyglucose autoradiography); format: in vivo, rat; conditions: 7.5 μmol/kg p.o.
Source text: Muscarinic and nicotinic effects on brain glucose utilisation
Changes in the functional activity of the CNS are associated with altered deoxyglucose (DOG) utilisation in the brain which can be visualised simultaneously in several brain regions using the autoradiographic method of Sokoloff et al., J. Neurochem. 28, 897 (1977). The administration of cholinergic drugs either direct (muscarinic agonists) or indirect (accumulation of acetylcholine) induces in this model a characteristic "fingerprint" pattern by modifying the regional glucose metabolism.
Male Wistar rats (150-200 g) are used. Drugs are administered at various doses and by different routes (i.v., p.o., i.p.) to animals. [14C]-2-deoxyglucose (125 μC/kg) is injected 45 min. before the animals are sacrificed. The brains are immediately excised, frozen at -80° C. and subsequently cut in slices with a thickness of 20 μm. The optical densities of the radiographic images are measured according to a modification of Sokoloff et al.

[2] = tested on: rat hippocampal slices (indirect method for acetylcholinesterase (AChE) inhibition); experiment: Electrically evoked 3H-acetylcholine release from rat hippocampal slices; format: cell-based
Source text: Electrically evoked ^3 H-acetylcholine release from rat hippocampal slices
Electrically evoked ^3 H-acetylcholine (^3 H-ACh) release from rat hippocampal slices is a functional in vitro model to investigate presynaptic muscarinic autoreceptor agonists and antagonists. This model can also be used as an indirect method to evaluate drugs which inhibit acetylcholinesterase (AChE). Inhibition of AChE activity leads to the accumulation of endogenous ACh which then interacts with presynaptic muscarinic autoreceptors and inhibits further release of ^3 H-ACh.
Rat hippocampal slices (Wistar strain, 180-200 g) are prepared by chopping into cross sections whole hippocampal slices at a distance of 0.3 mm with a McIlwain tissue chopper. Hippocampal slices obtained from 3 rats are incubated for 30 min. at 23° C. in 6 ml Krebs-Ringer containing 0.1 uCi ^3 H-choline and transferred into the superfusion chamber and superfused with Kreb's medium containing 10 μM hemicholinium-3 at a rate of 1.2 ml/min. at 30° C. Collection of 5 min. fractions of the superfusate begins after 60 min. of superfusion. Two periods of electrical stimulation (2 Hz rectangular pulses 2 msec, 10 mA, 2 min.) are applied after 70 min. (S1) and after 125 min. (S2) of superfusion. […] At the end of the experiments the slices are solubilized in conc. formic acid and tritium content is determined in the superfusate and the solubilized slices. Tritium outflow is expressed as the fractional rate of tritium outflow per min. Electrically evoked tritium outflow is calculated by subtraction of the extrapolated basal tritium outflow from the total tritium outflow during the two min. of electrical stimulation and the following 13 min. and is expressed as percent of the tritium content at the beginning of the sample collection. Drug effects on stimulation evoked tritium outflow are expressed as the ratios S2 /S1. All experiments are run in dublicates using a programmable 12 channel superfusion system. For the calculation a computer program is used.

Sequence of AChE (P37136 32-614): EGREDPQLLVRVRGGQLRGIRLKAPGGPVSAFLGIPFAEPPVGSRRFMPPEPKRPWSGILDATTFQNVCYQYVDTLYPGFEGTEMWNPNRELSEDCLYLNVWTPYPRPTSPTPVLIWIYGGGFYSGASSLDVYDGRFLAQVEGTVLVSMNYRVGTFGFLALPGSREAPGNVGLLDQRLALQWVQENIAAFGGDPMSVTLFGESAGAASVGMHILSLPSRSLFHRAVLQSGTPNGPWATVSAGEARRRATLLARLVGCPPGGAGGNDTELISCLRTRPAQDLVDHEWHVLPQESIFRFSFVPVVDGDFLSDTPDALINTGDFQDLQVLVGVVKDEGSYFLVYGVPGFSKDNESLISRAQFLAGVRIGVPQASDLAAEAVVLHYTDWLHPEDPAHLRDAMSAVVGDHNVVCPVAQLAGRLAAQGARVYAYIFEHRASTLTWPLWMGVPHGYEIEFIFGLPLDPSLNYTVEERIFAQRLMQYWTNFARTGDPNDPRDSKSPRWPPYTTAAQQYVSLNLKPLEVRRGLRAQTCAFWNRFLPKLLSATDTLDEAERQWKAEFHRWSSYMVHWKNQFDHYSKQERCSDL

CCN(C)C(=O)Oc1cccc([C@H](C)N(C)C)c1 [Compound A, (S)-N-ethyl-3-[(1-dimethylamino)ethyl]-N-methyl-phenyl-carbamate]
AChE activity in % of controls ± SD, Blood (AChE; 0.5 hours after treatment): 71.3 ± 12.3 % of controls | AChE activity in % of controls ± SD, Cortex (AChE; 6 hours after treatment): 42.4 ± 11.7 % of controls | AChE activity in % of controls ± SD, Striatum (AChE; 6 hours after treatment): 65.9 ± 15.5 % of controls | AChE activity in % of controls ± SD, Blood (AChE; 24 hours after treatment): 78.1 ± 17.8 % of controls | changes in DOG utilisation in various rat brain regions [1]: significant changes in DOG utilisation | antagonism of the inhibitory effect by atropine [2]: can be antagonized by atropine | inhibition at 100 µM ([2]; Rattus norvegicus, 3 h, 100 μM, read-out: inhibition of electrically evoked 3H-ACh release from hippocampal slices): ~40%
